# Assay results published in patent US10335382B2, “Use of hydrogen sulfide synthesis inhibitors for cancer therapy” (THE BOARD OF REGENTS OF THE UNIVERSITY OF TEXAS SYSTEM, priority 2013, dated 2019).
# Where two headings read alike, the source gives them in different places.
# Legend:
# HCT116 colon cancer cell [1] = assay: HCT116 colon cancer cell proliferation (xCELLigence); format: cell-based, human; conditions: Homo sapiens, HCT-116
# Experimental: Cellular proliferation assays are conducted in HCT116 CRC cells in vitro, using the Roche XCelligence method. Concentration-response curves with the various AOAA analogs are prepared (concentration range: 1, 3, 10, 100, 300 and 600 μM). AOAA is used as the reference control, which, according to preliminary data, has an IC50 of approximately 300 μM. Control proliferation studies in the non-carcinogenic colonic epithelial cell line NCM356 are used to confirm cancer-cell selectivity. Since the NCM356 cells contain low levels of CBS, based on previous studies it is expect that AOAA (and its prodrugs) will only exert modest antiproliferative effects in these cells. Proliferation-inhibitory effects of the AOAA prodrugs in NCM356 cells indicate CBS-independent pharmacological actions. A collection of human colorectal tumor tissue samples (and surrounding non-cancerous tissue) are used to test the conversion of the AOAA prodrugs to AOAA in a number of cancer samples.
# (§1) Cellular migration and invasion assays were performed as described (Chao et al. (1996) Cancer Res. 56:4811-19). Briefly, 10^5 cells were suspended in serum-free media containing 0.1% BSA and then added to 6.5 mm Transwell chambers ([…]) uncoated (migration assay) or coated with a thin layer (45 μl) of growth factor reduced matrigel (cell invasion assay). Cells were allowed to migrate toward the bottom chamber containing fibroblast (NIH-3T3 cells) conditioned media at 37° C. for 6 or 24 h for cell migration and invasion, respectively. Migrated and invaded cells were then fixed in Carson's fixative, stained in 0.33% toluidine blue and quantified by visual counting. For the HCT116-EAhy926 co-culture experiment, the cancer cell line was grown to confluence in the bottom wells of the transwell chambers and then endothelial cell migration was assessed (Coletta et al. (2012) Proc Natl Acad Sci USA. 109:9161-66). For assessment of colon cell proliferation, the xCELLigence system (Roche) was used (Szabo and Papapetropoulos (2011) Br J Pharmacol. 164:853-65).
# For assessment of cell proliferation, the xCELLigence system (Roche) was used. Briefly, HCT116 cells were cultured until approximately 70% confluence. Cells were then detached by Trypsin-EDTA and resuspended in fresh culture media at a concentration of 30,000 cells/ml. 200 μl of cell suspension was added to each well (6,000 cells/well) of a E-plate 96, a specially designed 96-well microtiter plate containing interdigitated microelectrodes to non-invasively monitor the cell proliferation by measuring the relative change in the electrical impedance of the cell monolayer, a unitless parameter named cell index (CI). Cells were then treated with YD02-51 and proliferation was monitored for 48 hours.
# HCT116 cells = assay: HCT116 cell migration and invasion (Transwell); format: cell-based, human; conditions: AOAA 1 mM, fibroblast-conditioned media
# Experimental: FIG. 3. […] (A, B) The lentiviral shRNA vectors targeting CBS (shCBS) and CSE (shCSE) were transfected into HCT116 cells. A non-targeting sequence was used as control (shNT). […] Following CBS and CSE silencing, cells were seeded at the density of 3000 cells/well in xCELLigence plates and proliferation was monitored for 36 hours. […] The NCM356 cells were infected overnight with a CBS expressing adenovirus (Ad-CBS, 10 multiplicity of infection (MOI)) or its control, a green fluorescent protein (Ad-GFP). The culture media was then replaced and cells were seeded in XCelligence plates at 3000 cells/well. Cell proliferation was then measured real-time over 36 hours. […] (H, I) The effect of AOAA and NaHS was also tested on HCT116 cell migration (H) and invasion (I). Cells were pretreated either with vehicle or AOAA (1 mM) and seeded in serum-free DMEM (0.1% albumin) in the upper chamber of a trans-well insert uncoated (migration assay) or coated with growth factor reduced matrigel (invasion assay). Migration and invasion were stimulated by fibroblast-conditioned media in the lower chamber for 6 and 24 hours, respectively. […] (J) In a co-culture of human endothelial cells (EAhy926) and colon cancer cells (HCT116), HCT 116 cells were seeded in the lower chamber of a trans-well insert and cultured to confluence. Endothelial cells were then seeded into the upper chamber in serum-free DMEM and allowed to migrate for 4 hours at 37° C. […] Western blots are representative of at least three independent experiments; proliferation/migration/invasion assays and H2S measurements represent mean±SEM of n=3 determinations.
# as §1, with “109:9161-66).” for “109:9161-66). For assessment of colon cell proliferation, the xCELLigence system (Roche) was used (Szabo and Papapetropoulos (2011) Br J Pharmacol. 164:853-65).”
# HCT116 colon cancer cell [2] = assay: HCT116 colon cancer cell proliferation (xCELLigence); format: cell-based, human; conditions: AOAA 1 mM; 36 hours
# CBS = target: T1, CBS (Homo sapiens, UniProt P35520); design: These studies used full-length human CBS enzyme; made in house; host or cells: E. coli BL21 (DE3) Codon Plus; conditions: cited from earlier work
# T1 sequence (P35520 1-551): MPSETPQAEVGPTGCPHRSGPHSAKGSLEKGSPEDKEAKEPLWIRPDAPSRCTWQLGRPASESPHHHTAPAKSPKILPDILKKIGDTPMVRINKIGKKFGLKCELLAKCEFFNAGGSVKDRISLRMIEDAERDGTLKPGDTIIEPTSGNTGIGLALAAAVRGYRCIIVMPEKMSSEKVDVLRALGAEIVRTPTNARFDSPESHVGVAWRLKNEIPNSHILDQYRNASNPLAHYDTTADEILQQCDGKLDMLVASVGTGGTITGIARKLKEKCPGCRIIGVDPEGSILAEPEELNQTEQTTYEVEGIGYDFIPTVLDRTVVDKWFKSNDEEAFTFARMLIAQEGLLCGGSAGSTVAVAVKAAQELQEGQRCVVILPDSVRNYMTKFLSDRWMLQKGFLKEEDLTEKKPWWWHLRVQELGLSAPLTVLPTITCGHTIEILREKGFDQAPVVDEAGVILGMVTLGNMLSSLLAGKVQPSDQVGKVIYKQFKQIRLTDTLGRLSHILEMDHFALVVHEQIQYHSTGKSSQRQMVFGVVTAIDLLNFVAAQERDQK
smiles,measurement,setting,value
"NOCC(=O)O [AOAA, aminooxyacetic acid]",inhibition at 300 µM,"HCT116 colon cancer cell [1]; 300 μM, HCT116",21%
same,IC50,"HCT116 colon cancer cell [1]; read-out: IC50 (μM), inhibition of HCT116 colon cancer cell proliferation",1780 µM
same,IC50,"HCT116 colon cancer cell [1]; reference control, preliminary data, XCelligence, read-out: IC50, HCT116 proliferation (preliminary data)",~300 µM
same,HCT116 cell migration,HCT116 cells; 6 hours,markedly reduced
same,HCT116 cell invasion,"HCT116 cells; matrigel, 24 hours",markedly reduced
same,HCT116 cell proliferation,HCT116 colon cancer cell [2],markedly reduced
same,concentrations exerting inhibitory effects on human recombinant CBS,CBS,low micromolar concentrations
